What was measured:
[1] = system: postjunctional alpha2-adrenoceptors; conditions: Brown 1988; cited from earlier work
[2] = system: postjunctional alpha1-adrenoceptors; conditions: Brown 1988; cited from earlier work
[3] = oral form; Stohs 2011; cited from earlier work
[4] = system: A1AR; conditions: weak A1AR agonist; Brown 1988; cited from earlier work
[5] = Safety study: topical application to entire scalp with BP, HR and EKG holter monitoring; type: in vivo, human; conditions: topical application across the entire scalp, synephrine at up to 6 g
Protocol: Use of weak acting A1AR agonists or agonists having a low affinity for all other adrenergic receptors, as described herein, can provide methods of treatment and/or prophylaxis that are a substantial improvement over conventional methods of use. Improvements can include enhancements in efficacy and/or safety. For example, safety tests were performed with embodiments of the composition using electrocardiogram (EKG) and blood pressure/heart rate (BP/HR) monitoring. […] Details of the study are described in the examples below.
A study was conducted to determine the safety of a topical solution containing 37% synephrine HCl (the composition of formula 01). 10 mL of the topical solution was applied to the entire scalp and rubbed thoroughly at a base line. An additional 10 mL was applied after 2 hours. Blood pressure (BP), heart rate (HR) and EKG measurements were taken using a wearable holter monitor.
In total, 40 female subjects ages 18-65 in good health were enrolled. 30 of the subjects received the active solution and 10 received the placebo (vehicle only). To evaluate the effect of the composition on systemic hemodynamic parameters, a holter monitor was placed on each subject. At baseline, BP and HR were recorded. BP, HR, and EKG data were collected over a 24-hour period via the holter monitor. […] EKG parameters (e.g., ST segments, arrhythmias, etc.) were normal throughout the 24 hour period.

[6] = system: A1AR; conditions: Ma 2010, Hibino 2009; cited from earlier work

SMILES	potency of the (+) form relative to the (−) form [1]	potency of the (+) form relative to the (−) form [2]	cardiac or hemodynamic changes [3]	potency less than that of phenylephrine [4]	adverse events (EKG and BP/HR monitoring) [5]	A1AR binding affinity [6]
CNC[C@@H](O)c1ccc(O)cc1 [S-(+)-synephrine]	one to two orders of magnitude less	one to two orders of magnitude less	–	–	–	–
CNCC(O)c1ccc(O)cc1 (stereo not drawn) [synephrine, p-synephrine]	–	–	not been shown to induce significant cardiac or hemodynamic changes	approximately 150 fold	No adverse events	low
